Test results taken from patent US20020048549A1, “Radioactive transition metal nitride heterocomplex” (priority 1996, published 2002).
Where two headings read alike, the source gives them in different places.

Test: Biodistribution of 99mTc(N)(X)(DTC)+ heterocomplexes in rats
Format: in vivo, male Spraque-Dawley rats (SD rats)
Procedure: The biodistribution of a ^99mTc nitride heterocomplex represented by the general formula ^99mTc(N)(X)(Y) was investigated as follows: ^99mTc nitride heterocomplexes were synthesized using DTC as a bidentate ligand Y and each of the diphosphine compounds X described below, and the biodistribution in rats of each heterocomplex was investigated.
Before being injected into rats, the contents of the vial were diluted with phosphate buffer (0.1 mol/dm^3, pH=7.06) containing 10% Tween 80 ([…]). The complexes were stable in the solutions and in human plasma for at least 6 hours.
The biodistribution was measured using male Spraque-Dawley rats (SD rats) weighing 200 to 250 g. After 24 hours fasting, the rats were put under intraperitoneal anesthesia and given an injection in the jugular vein. Then, the organs were excised from the rats at different intervals of time, washed and then weighed. In addition, blood samples were collected and then weighed. The data on the biodistribution are expressed as the mean±significant difference of the percentage of radioactivity level per gram of the organ weight based on the dose of radioactivity, (% dose/g). The measurement was carried out using groups of 5 rats each.

Bone % dose/g: 0.244 ± 0.01 % dose/g
Heart % dose/g: 1.236 ± 0.08 % dose/g
Liver % dose/g: 3.593 ± 0.42 % dose/g
Spleen % dose/g: 1.948 ± 0.20 % dose/g
Blood % dose/g (0 min after injection): 2.125 ± 0.3 % dose/g
Brain % dose/g (0 min after injection): 0.143 ± 0.02 % dose/g
Intestine % dose/g (0 min after injection): 0.418 ± 0.03 % dose/g
Kidney % dose/g (0 min after injection): 2.66 ± 0.05 % dose/g
Lung % dose/g (0 min after injection): 5.815 ± 0.04 % dose/g
Muscle % dose/g (0 min after injection): 0.098 ± 0.00 % dose/g
Stomach % dose/g (0 min after injection): 0.337 ± 0.00 % dose/g
Blood % dose/g (2 min after injection): 1.062 ± 0.13 % dose/g
Bone % dose/g (2 min after injection): 0.234 ± 0.06 % dose/g
Brain % dose/g (2 min after injection): 0.086 ± 0.00 % dose/g
Heart % dose/g (2 min after injection): 0.824 ± 0.01 % dose/g
Intestine % dose/g (2 min after injection): 0.471 ± 0.00 % dose/g
Kidney % dose/g (2 min after injection): 4.145 ± 0.64 % dose/g
Liver % dose/g (2 min after injection): 5.555 ± 0.83 % dose/g
Lung % dose/g (2 min after injection): 4.653 ± 0.65 % dose/g
Muscle % dose/g (2 min after injection): 0.085 ± 0.01 % dose/g
Spleen % dose/g (2 min after injection): 4.459 ± 0.09 % dose/g
Stomach % dose/g (2 min after injection): 0.379 ± 0.02 % dose/g
Blood % dose/g (10 min after injection): 0.495 ± 0.01 % dose/g
Bone % dose/g (10 min after injection): 0.3 ± 0.05 % dose/g
Brain % dose/g (10 min after injection): 0.041 ± 0.00 % dose/g
Heart % dose/g (10 min after injection): 0.795 ± 0.06 % dose/g
Intestine % dose/g (10 min after injection): 0.704 ± 0.08 % dose/g
Kidney % dose/g (10 min after injection): 4.251 ± 0.02 % dose/g
Liver % dose/g (10 min after injection): 5.795 ± 0.03 % dose/g
Lung % dose/g (10 min after injection): 3.191 ± 0.60 % dose/g
Muscle % dose/g (10 min after injection): 0.121 ± 0.02 % dose/g
Spleen % dose/g (10 min after injection): 7.237 ± 0.88 % dose/g
Stomach % dose/g (10 min after injection): 0.438 ± 0.03 % dose/g
Blood % dose/g (30 min after injection): 0.285 ± 0.01 % dose/g
Bone % dose/g (30 min after injection): 0.324 ± 0.05 % dose/g
Brain % dose/g (30 min after injection): 0.027 ± 0.00 % dose/g
Heart % dose/g (30 min after injection): 0.513 ± 0.07 % dose/g
Intestine % dose/g (30 min after injection): 1.107 ± 0.31 % dose/g
Kidney % dose/g (30 min after injection): 4.095 ± 0.73 % dose/g
Liver % dose/g (30 min after injection): 5.976 ± 0.49 % dose/g
Lung % dose/g (30 min after injection): 2.089 ± 0.16 % dose/g
Muscle % dose/g (30 min after injection): 0.106 ± 0.00 % dose/g
Spleen % dose/g (30 min after injection): 5.884 ± 2.7 % dose/g
Stomach % dose/g (30 min after injection): 0.444 ± 0.09 % dose/g
Blood % dose/g (1 hr after injection): 0.311 ± 0.03 % dose/g
Bone % dose/g (1 hr after injection): 0.398 ± 0.12 % dose/g
Brain % dose/g (1 hr after injection): 0.019 ± 0.00 % dose/g
Heart % dose/g (1 hr after injection): 0.55 ± 0.04 % dose/g
Intestine % dose/g (1 hr after injection): 0.896 ± 0.04 % dose/g
Kidney % dose/g (1 hr after injection): 4.779 ± 0.21 % dose/g
Liver % dose/g (1 hr after injection): 5.116 ± 0.00 % dose/g
Lung % dose/g (1 hr after injection): 1.586 ± 0.16 % dose/g
Muscle % dose/g (1 hr after injection): 0.302 ± 0.39 % dose/g
Spleen % dose/g (1 hr after injection): 6.711 ± 1.27 % dose/g
Stomach % dose/g (1 hr after injection): 0.625 ± 0.34 % dose/g
Blood % dose/g (2 hr after injection): 0.22 ± 0.05 % dose/g
Bone % dose/g (2 hr after injection): 0.347 ± 0.01 % dose/g
Brain % dose/g (2 hr after injection): 0.025 ± 0.00 % dose/g
Heart % dose/g (2 hr after injection): 0.603 ± 0.05 % dose/g
Intestine % dose/g (2 hr after injection): 0.977 ± 0.42 % dose/g
Kidney % dose/g (2 hr after injection): 5.327 ± 0.52 % dose/g
Liver % dose/g (2 hr after injection): 3.524 ± 0.53 % dose/g
Lung % dose/g (2 hr after injection): 1.716 ± 0.23 % dose/g
Muscle % dose/g (2 hr after injection): 0.111 ± 0.01 % dose/g
Spleen % dose/g (2 hr after injection): 4.747 ± 1.78 % dose/g
Stomach % dose/g (2 hr after injection): 0.776 ± 0.07 % dose/g
Blood % dose/g (4 hr after injection): 0.137 ± 0.02 % dose/g
Bone % dose/g (4 hr after injection): 0.264 ± 0.10 % dose/g
Brain % dose/g (4 hr after injection): 0.021 ± 0.00 % dose/g
Heart % dose/g (4 hr after injection): 0.382 ± 0.04 % dose/g
Intestine % dose/g (4 hr after injection): 0.906 ± 0.24 % dose/g
Kidney % dose/g (4 hr after injection): 4.282 ± 0.67 % dose/g
Liver % dose/g (4 hr after injection): 2.604 ± 0.25 % dose/g
Lung % dose/g (4 hr after injection): 1.08 ± 0.16 % dose/g
Muscle % dose/g (4 hr after injection): 0.077 ± 0.01 % dose/g
Spleen % dose/g (4 hr after injection): 6.294 ± 1.29 % dose/g
Stomach % dose/g (4 hr after injection): 0.719 ± 0.18 % dose/g
Compound: CCCN1CC[P+](c2ccccc2)(c2ccccc2)[99Tc-2]2(#[N])([NH]N(C)C(SC)=[S+]2)[P+](c2ccccc2)(c2ccccc2)CC1 [^99mTc(N)(PNP1)(DTC)^+]
